Reference: patent US8431341B2, “Compositions and methods for the identification of inhibitors of protein synthesis” (priority 2006, dated 2013)
[5mC] = 5-methylcytosine; m = 2'-O-methyl; r = 2'-OH (RNA)

System: fluorescent peptide that mimics phenylalanine synthetase
Experiment: Binding of yeast tRNAPhe ASL RNA oligomers to a phenylalanine synthetase peptide mimic
Details: compared with the native RNA oligomer or the unmodified RNA oligomer; FIG. 2
Procedure: A set of experiments was conducted to identify an RNA oligomer substrate to be used in an assay to identify substrates for use in identifying inhibitors of tRNA binding to a phenylalanine synthetase from yeast. A peptide was first identified for use as a phenylalanine synthetase mimic. The peptide was labeled with a fluorescent peptide for use in detection in binding assays.
A series of RNA oligomer substrates were also synthesized containing modified nucleotides (FIG. 2).
To determine binding affinity, an assay of ASL for yeast tRNA^phe was prepared varying only in the number of post-transcriptional nucleotide base modifications. This array was probed using a peptide from a phage display library that bound to an ASL containing 3 modifications. The affect of modification on the affinity of a peptide to an RNA substrate-sequence (Sequence A in FIG. 2: 5′-CCAGACUGAAGAUCUGG) (SEQ ID NO: 18) is the primary unmodified yeast ASL^Phe. Sequence B in FIG. 2 (5′-CCAGACmUGm AAGAUm^5CUGG) (SEQ ID NO: 19) is a template ASL sequence indicating the locations of the modified nucleotides for the various combinations of modified nucleotide bases in the mimics of the anticodon stem loop. Sequence C in FIG. 2 (5′-CCAGACmUGmAAm1GAΨm^5CUGG) (SEQ ID NO: 20) is the sequence of the native yeast tRNA^phe. […]

For “5′-CCAGACmUGm AAGAUm^5CUGG (CCAGACUGAAGAUCUGG; sugars from the 5' end r5 m1 r1 m1 r9, [5mC] at 14, backbone not given here; listed as Yersinia enterocolitica)”, the “affinity for a fluorescent peptide that mimics phenylalanine synthetase” value was “greater affinity”.
